This passage reports IC50 results from US11098044B2, “Imidazopyridinyl compounds and use thereof for treatment of neurodegenerative disorders” (1ST Biotherapeutics, Inc., priority 2019, dated 2021).

Common to all, as to format: biochemical
Experiment [1] concerns the target c-Abl (His-tagged recombinant human ABL1) (Homo sapiens (Human), UniProt P00519). Description: c-abl Kinase Assay (ADP-Glo). The note with it: ATP (25 μM), Abltide substrate. The gist of the method:
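His-tagged human ABL1 (0.25 ng/μl), Abltide (0.01 μg/μl) and ATP (25 μM), each at its added concentration, reacted with compound (0.5% DMSO) for 30 min at 30 °C. Buffer was 50 mM HEPES pH 7.5, 10 mM MgCl2, 1 mM EGTA, 0.05% BSA, 0.01% Triton X-100, 2 mM DTT. ADP formed was read by ADP-Glo luminescence, and IC50 was fitted from percent inhibition across concentrations.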

A further experiment addresses LRRK2 (WT) (Homo sapiens (Human), UniProt Q5S007). Description: LRRK2 Kinase Assay (Adapta). The note with it: 70 μM ATP, LRRKtide substrate. The gist of the method: (§1)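 Adapta TR-FRET kinase assay with LRRKtide substrate in 50 mM Tris pH 8.5, 0.01% BRIJ-35, 10 mM MgCl2, 1 mM EGTA, 0.02% NaN3. ATP at Km: 70 μM for WT LRRK2, 100 μM for G2019S. Reaction 1 h at room temperature; after 60 min with detection mix, 665/615 nm emission ratio read.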

The next experiment has as its target LRRK2 G2019S (Homo sapiens (Human), UniProt Q5S007, G2019S). Description: LRRK2 G2019S Kinase Assay (Adapta). The note with it: 100 μM ATP, LRRKtide substrate; read-out: LRRK2_G2019S IC50. The gist of the method: as §1

LRRK2 G2019S, sequence (Q5S007 whole entry G2019S): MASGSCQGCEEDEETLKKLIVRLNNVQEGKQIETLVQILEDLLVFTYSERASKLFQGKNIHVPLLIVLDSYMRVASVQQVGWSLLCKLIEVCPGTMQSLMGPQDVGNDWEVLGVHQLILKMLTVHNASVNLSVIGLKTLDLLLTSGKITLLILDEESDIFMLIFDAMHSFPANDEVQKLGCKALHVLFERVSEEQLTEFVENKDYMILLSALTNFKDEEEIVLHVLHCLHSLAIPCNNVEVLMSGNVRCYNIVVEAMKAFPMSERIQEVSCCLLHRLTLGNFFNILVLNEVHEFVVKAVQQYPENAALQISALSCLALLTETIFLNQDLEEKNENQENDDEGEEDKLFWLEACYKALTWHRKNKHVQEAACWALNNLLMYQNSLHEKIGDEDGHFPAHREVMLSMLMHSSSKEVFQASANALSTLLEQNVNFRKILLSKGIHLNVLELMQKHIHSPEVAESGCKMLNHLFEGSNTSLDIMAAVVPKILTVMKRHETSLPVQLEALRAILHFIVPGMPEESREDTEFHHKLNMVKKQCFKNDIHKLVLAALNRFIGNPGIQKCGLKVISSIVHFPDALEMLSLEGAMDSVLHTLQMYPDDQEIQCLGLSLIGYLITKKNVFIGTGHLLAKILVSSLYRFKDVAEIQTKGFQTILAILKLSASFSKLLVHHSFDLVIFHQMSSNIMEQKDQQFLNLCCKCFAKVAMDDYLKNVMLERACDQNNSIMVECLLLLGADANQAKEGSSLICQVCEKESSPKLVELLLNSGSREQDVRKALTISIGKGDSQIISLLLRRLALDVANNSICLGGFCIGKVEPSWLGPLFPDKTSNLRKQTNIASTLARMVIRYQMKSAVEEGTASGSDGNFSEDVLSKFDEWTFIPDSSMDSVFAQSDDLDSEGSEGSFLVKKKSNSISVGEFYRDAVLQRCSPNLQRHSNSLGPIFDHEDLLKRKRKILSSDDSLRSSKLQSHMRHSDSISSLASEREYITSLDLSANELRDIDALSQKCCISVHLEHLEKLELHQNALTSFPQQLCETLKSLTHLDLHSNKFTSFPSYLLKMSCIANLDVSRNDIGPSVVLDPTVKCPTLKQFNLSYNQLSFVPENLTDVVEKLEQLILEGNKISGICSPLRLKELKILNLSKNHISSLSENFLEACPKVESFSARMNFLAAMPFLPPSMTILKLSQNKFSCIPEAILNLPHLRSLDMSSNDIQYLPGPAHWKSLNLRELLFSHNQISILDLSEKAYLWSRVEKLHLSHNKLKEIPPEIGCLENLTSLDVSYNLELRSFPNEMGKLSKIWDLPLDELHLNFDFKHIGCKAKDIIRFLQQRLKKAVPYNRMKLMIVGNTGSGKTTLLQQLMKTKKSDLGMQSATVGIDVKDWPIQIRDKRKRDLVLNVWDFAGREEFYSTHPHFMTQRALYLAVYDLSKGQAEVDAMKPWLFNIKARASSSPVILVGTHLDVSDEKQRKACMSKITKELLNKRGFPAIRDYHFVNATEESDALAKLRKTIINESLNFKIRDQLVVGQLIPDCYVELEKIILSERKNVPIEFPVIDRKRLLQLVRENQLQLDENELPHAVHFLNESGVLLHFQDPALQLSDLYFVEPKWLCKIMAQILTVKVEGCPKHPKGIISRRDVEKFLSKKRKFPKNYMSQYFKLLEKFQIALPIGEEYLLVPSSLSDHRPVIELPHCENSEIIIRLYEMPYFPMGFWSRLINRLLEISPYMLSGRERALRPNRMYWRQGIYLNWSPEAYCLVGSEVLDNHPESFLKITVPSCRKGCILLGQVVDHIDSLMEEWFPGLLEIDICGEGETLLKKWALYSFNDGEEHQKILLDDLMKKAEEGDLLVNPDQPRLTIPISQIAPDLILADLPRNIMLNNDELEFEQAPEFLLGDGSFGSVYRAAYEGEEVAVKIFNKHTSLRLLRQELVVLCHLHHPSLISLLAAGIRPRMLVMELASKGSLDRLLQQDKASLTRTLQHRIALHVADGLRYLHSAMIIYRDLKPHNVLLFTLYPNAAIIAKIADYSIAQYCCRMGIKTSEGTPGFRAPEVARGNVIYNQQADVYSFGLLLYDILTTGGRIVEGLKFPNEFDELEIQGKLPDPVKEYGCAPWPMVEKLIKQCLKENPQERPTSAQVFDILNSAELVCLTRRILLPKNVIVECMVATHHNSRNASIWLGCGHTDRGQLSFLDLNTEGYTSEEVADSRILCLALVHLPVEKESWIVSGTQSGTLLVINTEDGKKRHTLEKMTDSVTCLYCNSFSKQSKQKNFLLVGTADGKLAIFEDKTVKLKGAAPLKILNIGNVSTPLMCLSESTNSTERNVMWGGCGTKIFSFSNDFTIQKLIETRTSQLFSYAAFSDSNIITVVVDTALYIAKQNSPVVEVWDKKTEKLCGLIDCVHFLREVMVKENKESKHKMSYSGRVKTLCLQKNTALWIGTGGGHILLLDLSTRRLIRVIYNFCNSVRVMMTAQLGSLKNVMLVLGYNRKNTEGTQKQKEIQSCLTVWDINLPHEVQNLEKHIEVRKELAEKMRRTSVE
c-Abl (His-tagged recombinant human ABL1), sequence (P00519 whole entry): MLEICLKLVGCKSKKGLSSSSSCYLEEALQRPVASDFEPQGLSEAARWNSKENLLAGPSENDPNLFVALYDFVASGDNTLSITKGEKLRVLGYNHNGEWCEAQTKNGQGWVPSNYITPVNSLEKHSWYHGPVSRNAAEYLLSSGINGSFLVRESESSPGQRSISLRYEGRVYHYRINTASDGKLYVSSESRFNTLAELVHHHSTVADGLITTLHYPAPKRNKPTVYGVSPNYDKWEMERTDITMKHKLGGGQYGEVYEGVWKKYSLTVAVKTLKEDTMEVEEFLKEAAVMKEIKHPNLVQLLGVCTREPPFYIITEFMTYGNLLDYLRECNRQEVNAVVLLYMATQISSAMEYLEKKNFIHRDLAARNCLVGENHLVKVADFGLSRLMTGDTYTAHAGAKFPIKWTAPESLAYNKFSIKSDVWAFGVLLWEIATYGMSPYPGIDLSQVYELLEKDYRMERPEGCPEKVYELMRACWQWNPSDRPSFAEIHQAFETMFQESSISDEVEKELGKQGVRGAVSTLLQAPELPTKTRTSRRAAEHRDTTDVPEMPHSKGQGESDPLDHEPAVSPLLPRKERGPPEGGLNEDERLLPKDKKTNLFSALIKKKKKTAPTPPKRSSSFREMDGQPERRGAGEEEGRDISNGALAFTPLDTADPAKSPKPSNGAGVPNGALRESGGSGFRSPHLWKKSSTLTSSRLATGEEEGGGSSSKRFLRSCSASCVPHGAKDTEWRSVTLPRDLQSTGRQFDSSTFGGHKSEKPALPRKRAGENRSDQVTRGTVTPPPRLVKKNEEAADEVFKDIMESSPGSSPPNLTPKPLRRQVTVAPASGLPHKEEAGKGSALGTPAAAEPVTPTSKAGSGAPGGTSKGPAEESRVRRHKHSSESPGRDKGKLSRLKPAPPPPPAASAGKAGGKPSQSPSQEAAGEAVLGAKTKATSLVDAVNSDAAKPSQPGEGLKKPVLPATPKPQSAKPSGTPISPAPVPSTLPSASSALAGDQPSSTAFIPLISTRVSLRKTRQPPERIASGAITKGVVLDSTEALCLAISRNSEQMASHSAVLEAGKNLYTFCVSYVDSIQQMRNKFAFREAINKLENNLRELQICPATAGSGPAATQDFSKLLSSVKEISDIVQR
LRRK2 (WT), sequence (Q5S007 whole entry): as the sequence (Q5S007 whole entry G2019S) above, with S2019G counted along it

`Cc1c(F)cncc1-c1ccc2nc(NC(=O)[C@@H]3C[C@@H]3F)c(C)n2c1` [Example 10, (1S,2S)-2-fluoro-N-(6-(5-fluoro-4-methylpyridin-3-yl)-3-methylimidazo[1,2-a]pyridin-2-yl)cyclopropane-1-carboxamide]: the IC50 in experiment [1] was 101 to 1000 nM; on LRRK2 (WT) it was > 1000 nM; on LRRK2 G2019S, > 1000 nM.

For the compound `Cc1cccc(F)c1-c1ccc2nc(NC(=O)[C@@H]3C[C@@H]3F)c(Cl)n2c1` [Example 4, (1S,2S)—N-(3-chloro-6-(2-fluoro-6-methylphenyl)imidazo[1,2-a]pyridin-2-yl)-2-fluorocyclopropane-1-carboxamide], the IC50 in experiment [1] is 10 to 100 nM; on LRRK2 (WT) it was > 1000 nM; on LRRK2 G2019S it was 101 to 1000 nM.

On to `Cc1c(F)cccc1-c1ccc2nc(NC(=O)[C@H]3C[C@@H]3F)cn2c1` (stereo in doubt) [Example 71, 2-fluoro-N-(6-(3-fluoro-2-methylphenyl)imidazo[1,2-a]pyridin-2-yl)cyclopropanecarboxamide], for which the IC50 in experiment [1] is < 10 nM; on LRRK2 (WT), 101 to 1000 nM; on LRRK2 G2019S it was 10 to 100 nM.

Regarding `Cc1c[nH]c2ncc(-c3ccc4nc(NC(=O)[C@@H]5C[C@@H]5F)cn4c3)cc12` [Example 53, (1S,2S)-2-fluoro-N-(6-(3-methyl-1H-pyrrolo[2,3-b]pyridin-5-yl)imidazo[1,2-a]pyridin-2-yl)cyclopropane-1-carboxamide], the IC50 is < 10 nM in experiment [1], 101 to 1000 nM on LRRK2 (WT) and 10 to 100 nM on LRRK2 G2019S.

For the compound `N#Cc1c(F)cccc1-c1ccc2nc(NC(=O)[C@@H]3C[C@@H]3F)cn2c1` [Example 60, (1S,2S)—N-(6-(2-cyano-3-fluorophenyl)imidazo[1,2-a]pyridin-2-yl)-2-fluorocyclopropanecarboxamide], the IC50 (in experiment [1]; against LRRK2 (WT); at LRRK2 G2019S) was 10 to 100 nM in each case.

`Cc1ccc(-c2ccc3nc(NC(=O)[C@@H]4C[C@@H]4F)cn3c2)c(C)c1` [Example 32, (1S,2S)—N-(6-(2,4-dimethylphenyl)imidazo[1,2-a]pyridin-2-yl)-2-fluorocyclopropane-1-carboxamide]: the values for the IC50 (in experiment [1]; against LRRK2 (WT); on LRRK2 G2019S) were < 10 nM, 101 to 1000 nM and 101 to 1000 nM, respectively.

On to `Cc1ccc(-c2cc[nH]n2)cc1-c1ccc2nc(NC(=O)[C@@H]3C[C@@H]3F)cn2c1` [Example 28, (1S,2S)-2-fluoro-N-(6-(2-methyl-5-(1H-pyrazol-3-yl)phenyl)imidazo[1,2-a]pyridin-2-yl)cyclopropane-1-carboxamide], for which the IC50 is < 10 nM in experiment [1], 101 to 1000 nM at LRRK2 (WT) and 101 to 1000 nM on LRRK2 G2019S.

For the compound `Cc1ccc(C)c(-c2ccc3nc(NC(=O)[C@@H]4C[C@@H]4F)cn3c2)c1` [Example 34, (1S,2S)—N-(6-(2,5-dimethylphenyl)imidazo[1,2-a]pyridin-2-yl)-2-fluorocyclopropane-1-carboxamide], the IC50 in experiment [1] is < 10 nM; on LRRK2 (WT) it was 101 to 1000 nM; at LRRK2 G2019S it was 101 to 1000 nM.

Consider `O=C(Nc1cn2cc(-c3cc[nH]n3)ccc2n1)[C@@H]1C[C@@H]1F` [Example 18, (1S,2S)—N-(6-(1H-pyrazol-3-yl)imidazo[1,2-a]pyridin-2-yl)-2-fluorocyclopropane-1-carboxamide], for which the IC50 (in experiment [1]; against LRRK2 (WT); at LRRK2 G2019S) was 101 to 1000 nM throughout.

Take `Cc1c(F)cncc1-c1ccc2nc(NC(=O)[C@@H]3C[C@@H]3F)c(Cl)n2c1` [Example 16, (1S,2S)—N-(3-chloro-6-(5-fluoro-4-methylpyridin-3-yl)imidazo[1,2-a]pyridin-2-yl)-2-fluorocyclopropane-1-carboxamide]: the IC50 in experiment [1] was 101 to 1000 nM; against LRRK2 (WT), > 1000 nM; on LRRK2 G2019S it was > 1000 nM.

In the case of `Cc1cc(F)ccc1-c1ccc2nc(NC(=O)[C@@H]3C[C@@H]3F)cn2c1` [Example 39, (1S,2S)-2-fluoro-N-(6-(4-fluoro-2-methylphenyl)imidazo[1,2-a]pyridin-2-yl)cyclopropane-1-carboxamide], the IC50 in experiment [1] was < 10 nM; on LRRK2 (WT), 101 to 1000 nM; at LRRK2 G2019S, 10 to 100 nM.

Consider `O=C(Nc1cn2cc(-c3cnccc3C(F)(F)F)ccc2n1)[C@@H]1C[C@@H]1F` [Example 31, (1S,2S)-2-fluoro-N-(6-(4-(trifluoromethyl)pyridin-3-yl)imidazo[1,2-a]pyridin-2-yl)cyclopropane-1-carboxamide], for which the IC50 in experiment [1] was 101 to 1000 nM; against LRRK2 (WT) it was > 1000 nM; at LRRK2 G2019S it was 101 to 1000 nM.

Regarding `O=C(Nc1cn2cc(-c3cccc(F)c3Cl)ccc2n1)[C@@H]1C[C@@H]1F` [Example 61, (1S,2S)—N-(6-(2-chloro-3-fluorophenyl)imidazo[1,2-a]pyridin-2-yl)-2-fluorocyclopropanecarboxamide], the values for the IC50 (in experiment [1]; on LRRK2 (WT); on LRRK2 G2019S) were < 10 nM, 10 to 100 nM and 10 to 100 nM, respectively.

`COc1c(F)cccc1-c1ccc2nc(NC(=O)[C@@H]3C[C@@H]3F)cn2c1` [Example 59, (1S,2S)-2-fluoro-N-(6-(3-fluoro-2-methoxyphenyl)imidazo[1,2-a]pyridin-2-yl)cyclopropanecarboxamide]: the values for the IC50 (in experiment [1]; at LRRK2 (WT); at LRRK2 G2019S) were < 10 nM, 10 to 100 nM and 10 to 100 nM, respectively.

For the compound `Cc1c[nH]nc1-c1ccc2nc(NC(=O)[C@@H]3C[C@@H]3F)cn2c1` [Example 19, (1S,2S)-2-fluoro-N-(6-(4-methyl-1H-pyrazol-3-yl)imidazo[1,2-a]pyridin-2-yl)cyclopropane-1-carboxamide], the IC50 in experiment [1] fell in the range of 10 to 100 nM; at LRRK2 (WT), 101 to 1000 nM; on LRRK2 G2019S it was 101 to 1000 nM.

Consider `Cc1cc(N(C)C)ncc1-c1ccc2nc(NC(=O)[C@@H]3C[C@@H]3F)cn2c1` [Example 69, (1S,2S)—N-(6-(6-(dimethylamino)-4-methylpyridin-3-yl)imidazo[1,2-a]pyridin-2-yl)-2-fluorocyclopropanecarboxamide], for which the results for the IC50 (in experiment [1]; against LRRK2 (WT); at LRRK2 G2019S) were 101 to 1000 nM, > 1000 nM and > 1000 nM, respectively.

As for `Cc1cc(F)ncc1-c1ccc2nc(NC(=O)[C@@H]3C[C@@H]3F)cn2c1` [Example 67, (1S,2S)-2-fluoro-N-(6-(6-fluoro-4-methylpyridin-3-yl)imidazo[1,2-a]pyridin-2-yl)cyclopropanecarboxamide], the IC50 (in experiment [1]; against LRRK2 (WT); at LRRK2 G2019S) was 10 to 100 nM throughout.

With `Cc1cccc(F)c1-c1ccc2nc(NC(=O)[C@@H]3C[C@@H]3F)c(C)n2c1` [Example 9, (1S,2S)-2-fluoro-N-(6-(2-fluoro-6-methylphenyl)-3-methylimidazo[1,2-a]pyridin-2-yl)cyclopropane-1-carboxamide], the IC50 in experiment [1] was in the range of 10 to 100 nM; at LRRK2 (WT), 101 to 1000 nM; at LRRK2 G2019S, 101 to 1000 nM.

Turning to `O=C(Nc1cn2cc(-c3ccc4sc(=O)[nH]c4c3)ccc2n1)[C@@H]1C[C@@H]1F` [Example 54, (1S,2S)-2-fluoro-N-(6-(2-oxo-2,3-dihydrobenzo[d]thiazol-5-yl)imidazo[1,2-a]pyridin-2-yl)cyclopropane-1-carboxamide], the IC50 is 10 to 100 nM in experiment [1], > 1000 nM against LRRK2 (WT) and 101 to 1000 nM on LRRK2 G2019S.

Usually IC50 stands for the point on the concentration scale where inhibition reaches its midpoint.
